Where “and” joins values, the source holds several entries; their conditions need not be identical. Equal entries are not always repeated. Calls of active or inactive are those of the source.
Columns and labels:
[1] = HPDE-C7 pancreatic duct cell viability loss – fluorescence, HTS (AID 430); format: functional, cell-based; conditions: Homo sapiens
[2] = viability loss of HPDE-C7K cells – cell-based, fluorescence, HTS, primary screen (AID 431); format: functional; conditions: Homo sapiens
[3] = molecular target: T1, Calpain-2 catalytic subunit (Sus scrofa, UniProt P43367); test: m-calpain protease blockers, concentration series – biochemical, fluorogenic peptide substrate, dose response (AID 1420); format: functional
T1 sequence (P43367 whole entry): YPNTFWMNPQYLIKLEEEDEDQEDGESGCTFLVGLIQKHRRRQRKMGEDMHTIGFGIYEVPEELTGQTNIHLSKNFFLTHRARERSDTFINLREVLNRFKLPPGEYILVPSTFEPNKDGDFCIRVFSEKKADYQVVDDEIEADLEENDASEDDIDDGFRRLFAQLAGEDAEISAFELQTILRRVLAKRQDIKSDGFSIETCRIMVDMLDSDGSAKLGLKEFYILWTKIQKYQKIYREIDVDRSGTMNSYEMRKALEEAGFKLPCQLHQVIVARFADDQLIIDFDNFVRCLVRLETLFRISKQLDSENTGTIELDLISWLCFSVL

[4] = system: Streptococcus; test: GAS UMAA2166 growth inhibition – luminescence, BacTiterGlo, counter-screen for streptokinase expression inhibitor project, dose response (AID 1915); format: functional, organism-based;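 further: potency for reduction of bacterial viability or growth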
[5] = molecular target: 1-acylglycerol-3-phosphate O-acyltransferase ABHD5/Perilipin-5 (Homo sapiens, UniProt Q00G26+Q8WTS1); test: Luminescence-based biochemical high throughput dose response assay for inhibitors of the interaction of the lipase co-activator protein, abhydrolase domain containing 5 (ABHD5) with perilipin-5 (MLDP; PLIN5) (2K validation set). [Related pubchem assays (depositor defined):AID493035, AID493241]
[6] = molecular target: Perilipin-1/ABHD5 (Homo sapiens, UniProt O60240+Q8WTS1); test: Luminescence-based biochemical high throughput dose response assay for inhibitors of the interaction of the lipase co-activator protein, abhydrolase domain containing 5 (ABHD5) with perilipin-1 (PLIN1) (2K validation set). [Related pubchem assays (depositor defined):AID493027, AID493057]
[7] = glucagon-like peptide-1 release potency in STC-1, concentration-response, half-maximal inhibitory concentration in the STC-1 line (AID 1117345); format: functional, cell-based
[8] = cytotoxicity toward Colo320 cells – cell-based, CellTiter-Glo luminescence, IC50, dose response (AID 1117334); format: functional; conditions: COLO 320
[9] = rise of 4N DNA cells, HeLa – IC50, dose response (AID 1117351); format: functional, cell-based
[10] = molecular target: Dual specificity protein kinase CLK2 (Homo sapiens, UniProt P49760); format: functional
[11] = molecular target: Dual specificity mitogen-activated protein kinase kinase 1 (Homo sapiens, UniProt Q02750); test: Navigating the Kinome. Panel member name: MAP2K1; format: functional
[12] = molecular target: MAP kinase-activated protein kinase 2 (Homo sapiens, UniProt P49137); format: functional;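 further: measured as one member of a kinome-wide kinase panel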
[13] = molecular target: Cell division cycle 7-related protein kinase (Homo sapiens, UniProt O00311); format: functional;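 further: value obtained from a kinome-wide kinase panel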
Chain of Cell division cycle 7-related protein kinase (O00311 whole entry): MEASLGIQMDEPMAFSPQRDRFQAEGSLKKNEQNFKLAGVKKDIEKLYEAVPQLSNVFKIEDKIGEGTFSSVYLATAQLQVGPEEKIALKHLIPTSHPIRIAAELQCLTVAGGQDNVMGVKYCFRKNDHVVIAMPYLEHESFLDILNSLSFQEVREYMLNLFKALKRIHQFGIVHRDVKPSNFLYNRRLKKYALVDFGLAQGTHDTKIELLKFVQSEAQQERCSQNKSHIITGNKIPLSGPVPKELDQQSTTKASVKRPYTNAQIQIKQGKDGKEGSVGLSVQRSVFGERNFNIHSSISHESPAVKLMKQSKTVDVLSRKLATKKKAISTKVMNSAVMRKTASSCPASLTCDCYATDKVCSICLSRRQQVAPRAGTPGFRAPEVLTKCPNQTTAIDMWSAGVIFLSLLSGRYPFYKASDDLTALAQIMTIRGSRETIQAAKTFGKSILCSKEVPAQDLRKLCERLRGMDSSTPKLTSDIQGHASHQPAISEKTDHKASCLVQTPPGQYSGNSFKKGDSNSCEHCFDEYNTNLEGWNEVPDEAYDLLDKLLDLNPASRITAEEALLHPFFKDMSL

[14] = molecular target: Serine/threonine-protein kinase PAK 4 (Homo sapiens, UniProt O96013); format: functional;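 further: value obtained within a kinome profiling panel in which PAK4 was one of the panel members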
Chain of Serine/threonine-protein kinase PAK 4 (O96013 whole entry): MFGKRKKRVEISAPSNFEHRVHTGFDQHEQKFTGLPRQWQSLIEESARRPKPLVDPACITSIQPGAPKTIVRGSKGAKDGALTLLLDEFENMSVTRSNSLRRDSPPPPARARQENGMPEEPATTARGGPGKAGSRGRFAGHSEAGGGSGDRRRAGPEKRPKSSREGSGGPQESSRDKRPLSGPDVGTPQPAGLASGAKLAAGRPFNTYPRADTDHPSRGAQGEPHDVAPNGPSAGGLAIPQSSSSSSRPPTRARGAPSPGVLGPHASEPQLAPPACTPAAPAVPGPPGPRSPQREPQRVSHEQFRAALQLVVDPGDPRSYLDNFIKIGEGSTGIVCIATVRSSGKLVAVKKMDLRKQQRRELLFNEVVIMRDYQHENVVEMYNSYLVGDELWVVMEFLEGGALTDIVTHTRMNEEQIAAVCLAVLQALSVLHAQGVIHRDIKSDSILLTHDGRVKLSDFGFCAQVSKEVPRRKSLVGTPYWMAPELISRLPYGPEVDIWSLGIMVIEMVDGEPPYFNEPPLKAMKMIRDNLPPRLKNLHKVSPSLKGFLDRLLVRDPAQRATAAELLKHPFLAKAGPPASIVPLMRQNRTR

[15] = molecular target: Calcium/calmodulin-dependent protein kinase type II subunit delta (Homo sapiens, UniProt Q13557); format: functional
Chain of Calcium/calmodulin-dependent protein kinase type II subunit delta (Q13557 whole entry): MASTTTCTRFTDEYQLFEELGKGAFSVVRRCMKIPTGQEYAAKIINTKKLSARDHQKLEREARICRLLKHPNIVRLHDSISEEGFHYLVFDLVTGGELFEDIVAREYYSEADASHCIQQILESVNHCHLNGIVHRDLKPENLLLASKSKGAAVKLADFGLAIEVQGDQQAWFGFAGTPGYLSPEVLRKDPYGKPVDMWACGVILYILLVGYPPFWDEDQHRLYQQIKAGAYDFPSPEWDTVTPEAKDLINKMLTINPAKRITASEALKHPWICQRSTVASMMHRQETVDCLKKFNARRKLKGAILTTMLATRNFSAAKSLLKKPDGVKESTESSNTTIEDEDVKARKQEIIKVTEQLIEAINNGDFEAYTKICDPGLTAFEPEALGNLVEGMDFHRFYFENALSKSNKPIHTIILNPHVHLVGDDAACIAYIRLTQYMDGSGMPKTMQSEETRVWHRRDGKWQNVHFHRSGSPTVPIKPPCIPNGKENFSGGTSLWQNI

[16] = molecular target: Tyrosine-protein kinase ITK/TSK (Homo sapiens, UniProt Q08881); format: functional;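 further: affinity for ITK measured as one member of a broad kinase panel profiling binding across the kinome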
[17] = molecular target: Tyrosine-protein kinase Blk (Homo sapiens, UniProt P51451); format: functional;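 further: obtained as one member of a kinome-wide kinase assay panel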
Chain of Tyrosine-protein kinase Blk (P51451 whole entry): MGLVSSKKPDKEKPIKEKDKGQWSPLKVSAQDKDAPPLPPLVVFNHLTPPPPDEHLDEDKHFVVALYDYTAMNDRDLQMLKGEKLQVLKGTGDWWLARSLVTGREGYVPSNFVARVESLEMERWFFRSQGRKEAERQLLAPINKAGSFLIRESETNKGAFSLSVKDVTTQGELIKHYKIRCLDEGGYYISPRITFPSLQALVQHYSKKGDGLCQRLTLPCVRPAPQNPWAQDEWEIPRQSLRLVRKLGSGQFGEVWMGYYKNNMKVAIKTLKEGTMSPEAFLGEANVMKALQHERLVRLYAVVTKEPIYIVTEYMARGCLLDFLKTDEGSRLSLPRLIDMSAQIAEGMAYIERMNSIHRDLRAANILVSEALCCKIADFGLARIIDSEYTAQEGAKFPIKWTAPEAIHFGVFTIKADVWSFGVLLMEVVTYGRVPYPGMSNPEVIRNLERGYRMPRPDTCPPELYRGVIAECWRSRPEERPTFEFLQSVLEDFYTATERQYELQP

[18] = molecular target: Testis-specific serine/threonine-protein kinase 1 (Homo sapiens, UniProt Q9BXA7); format: functional
[19] = molecular target: Homeodomain-interacting protein kinase 2 (Homo sapiens, UniProt Q9H2X6); format: functional;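 further: measured within a kinome-wide kinase profiling panel, HIPK2 being one panel member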
[20] = molecular target: High affinity nerve growth factor receptor (Homo sapiens, UniProt P04629); format: functional;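 further: NTRK1 tested as one member of a kinome-wide profiling panel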
[21] = molecular target: Insulin receptor (Homo sapiens, UniProt P06213); format: functional;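 further: insulin receptor kinase tested as one member of a kinome-wide kinase panel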
[22] = molecular target: Mitogen-activated protein kinase kinase kinase 20 (Homo sapiens, UniProt Q9NYL2); format: functional
[23] = molecular target: Serine/threonine-protein kinase pim-3 (Homo sapiens, UniProt Q86V86); format: functional;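 further: value obtained as one member of a broad kinase panel profiling effort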
[24] = molecular target: Tyrosine-protein kinase Srms (Homo sapiens, UniProt Q9H3Y6); format: functional;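 further: SRMS measured as one member of a kinome-wide kinase profiling panel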
[25] = molecular target: Mitogen-activated protein kinase kinase kinase kinase 2 (Homo sapiens, UniProt Q12851); format: functional;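 further: measured as one member of a kinome-wide kinase panel, with MAP4K2 as the panel entry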
[26] = molecular target: Dual specificity tyrosine-phosphorylation-regulated kinase 3 (Homo sapiens, UniProt O43781); format: functional;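 further: measured as one member of a broad kinase panel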
[27] = molecular target: Receptor-type tyrosine-protein kinase FLT3 (Homo sapiens, UniProt P36888); format: functional;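 further: FLT3 was tested as one member of a kinome-wide kinase panel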
[28] = molecular target: Calcium/calmodulin-dependent protein kinase type II subunit beta (Homo sapiens, UniProt Q13554); format: functional
Chain of Calcium/calmodulin-dependent protein kinase type II subunit beta (Q13554 whole entry): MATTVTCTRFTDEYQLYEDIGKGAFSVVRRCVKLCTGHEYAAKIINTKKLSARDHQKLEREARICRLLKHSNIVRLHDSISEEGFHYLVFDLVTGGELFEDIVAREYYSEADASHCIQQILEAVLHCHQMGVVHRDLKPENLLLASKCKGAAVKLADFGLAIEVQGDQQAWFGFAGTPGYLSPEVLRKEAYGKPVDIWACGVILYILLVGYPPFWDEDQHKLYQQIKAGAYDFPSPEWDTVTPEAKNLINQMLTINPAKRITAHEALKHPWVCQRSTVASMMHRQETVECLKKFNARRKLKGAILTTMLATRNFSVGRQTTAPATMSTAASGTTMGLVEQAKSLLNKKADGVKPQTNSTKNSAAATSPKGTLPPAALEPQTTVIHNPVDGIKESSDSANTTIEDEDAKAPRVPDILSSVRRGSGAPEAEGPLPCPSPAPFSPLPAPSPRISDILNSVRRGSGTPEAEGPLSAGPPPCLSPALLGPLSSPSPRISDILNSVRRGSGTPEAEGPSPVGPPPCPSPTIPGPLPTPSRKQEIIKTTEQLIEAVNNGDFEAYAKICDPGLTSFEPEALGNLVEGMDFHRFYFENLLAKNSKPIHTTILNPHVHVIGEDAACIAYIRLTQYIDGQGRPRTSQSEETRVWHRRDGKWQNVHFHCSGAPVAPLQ

[29] = molecular target: Mitogen-activated protein kinase 1 (Homo sapiens, UniProt P28482); format: functional
[30] = molecular target: Aurora kinase B (Homo sapiens, UniProt Q96GD4); format: functional
Chain of Aurora kinase B (Q96GD4 whole entry): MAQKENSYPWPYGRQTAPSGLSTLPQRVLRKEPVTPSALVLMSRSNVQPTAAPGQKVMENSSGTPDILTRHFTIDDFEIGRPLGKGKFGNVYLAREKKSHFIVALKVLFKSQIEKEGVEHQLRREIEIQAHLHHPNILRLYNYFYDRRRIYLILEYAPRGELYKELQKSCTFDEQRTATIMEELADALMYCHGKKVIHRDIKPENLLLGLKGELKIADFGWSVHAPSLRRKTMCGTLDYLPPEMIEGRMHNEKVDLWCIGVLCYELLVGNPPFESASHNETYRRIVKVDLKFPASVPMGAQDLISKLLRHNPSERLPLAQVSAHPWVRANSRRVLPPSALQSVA

[31] = molecular target: Interleukin-1 receptor-associated kinase 4 (Homo sapiens, UniProt Q9NWZ3); format: functional
[32] = molecular target: RAC-alpha serine/threonine-protein kinase (Homo sapiens, UniProt P31749); format: functional;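 further: AKT1 affinity measured as one member of a kinome-wide kinase profiling panel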
[33] = molecular target: Cyclin-dependent kinase 1 (Homo sapiens, UniProt P06493); format: functional;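 further: Kinome-wide panel profiling, with the target listed as panel member CDC2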
Chain of Cyclin-dependent kinase 1 (P06493 whole entry): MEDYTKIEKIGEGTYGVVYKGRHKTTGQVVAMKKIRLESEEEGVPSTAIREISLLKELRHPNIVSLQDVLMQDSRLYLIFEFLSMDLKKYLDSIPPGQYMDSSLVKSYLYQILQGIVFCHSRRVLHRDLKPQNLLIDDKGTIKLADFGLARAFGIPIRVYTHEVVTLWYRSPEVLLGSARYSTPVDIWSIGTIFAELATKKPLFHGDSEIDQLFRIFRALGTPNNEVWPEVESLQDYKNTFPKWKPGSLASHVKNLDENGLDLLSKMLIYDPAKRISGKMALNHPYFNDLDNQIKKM

[34] = molecular target: Cyclin-dependent kinase 7 (Homo sapiens, UniProt P50613); format: functional;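 further: value comes from a kinome-wide kinase profiling panel in which CDK7 is one member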
[35] = molecular target: Macrophage colony-stimulating factor 1 receptor (Homo sapiens, UniProt P07333); format: functional;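 further: value comes from the Navigating the Kinome screening panel, CSF1R member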
[36] = molecular target: Serine/threonine-protein kinase BRSK1 (Homo sapiens, UniProt Q8TDC3); format: functional;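 further: measured within a kinome-wide kinase panel, with the target listed as KIAA1811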
Chain of Serine/threonine-protein kinase BRSK1 (Q8TDC3 whole entry): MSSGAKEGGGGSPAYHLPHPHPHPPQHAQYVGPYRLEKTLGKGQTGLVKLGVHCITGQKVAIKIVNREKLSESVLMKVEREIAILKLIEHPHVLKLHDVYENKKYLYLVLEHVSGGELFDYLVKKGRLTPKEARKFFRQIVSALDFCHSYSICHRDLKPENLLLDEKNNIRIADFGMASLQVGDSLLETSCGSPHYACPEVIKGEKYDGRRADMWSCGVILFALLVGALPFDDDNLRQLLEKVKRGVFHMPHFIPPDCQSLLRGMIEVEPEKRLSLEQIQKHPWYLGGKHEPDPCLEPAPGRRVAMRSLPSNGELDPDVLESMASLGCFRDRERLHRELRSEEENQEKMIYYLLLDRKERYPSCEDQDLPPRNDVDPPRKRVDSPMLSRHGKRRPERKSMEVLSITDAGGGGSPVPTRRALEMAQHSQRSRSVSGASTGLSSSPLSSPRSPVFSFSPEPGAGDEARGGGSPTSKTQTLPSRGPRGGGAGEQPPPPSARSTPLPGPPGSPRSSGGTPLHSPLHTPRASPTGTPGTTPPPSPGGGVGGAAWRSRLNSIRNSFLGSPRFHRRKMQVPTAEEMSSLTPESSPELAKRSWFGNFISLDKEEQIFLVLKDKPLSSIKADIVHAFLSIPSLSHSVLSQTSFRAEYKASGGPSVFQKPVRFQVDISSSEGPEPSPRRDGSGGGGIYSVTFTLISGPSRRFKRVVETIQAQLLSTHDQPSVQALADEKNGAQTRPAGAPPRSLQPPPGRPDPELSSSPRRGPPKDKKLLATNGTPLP

[37] = molecular target: Dual specificity mitogen-activated protein kinase kinase 2 (Homo sapiens, UniProt P36507); test: Navigating the Kinome. Panel member name: MAP2K2; format: functional
[38] = molecular target: Dual specificity tyrosine-phosphorylation-regulated kinase 1A (Homo sapiens, UniProt Q13627); format: functional;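 further: measured against DYRK1A as one member of a broad kinome profiling panel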
[39] = molecular target: Calcium/calmodulin-dependent protein kinase type II subunit alpha (Homo sapiens, UniProt Q9UQM7); test: Navigating the Kinome. Panel member name: CAMK2A; format: functional
Chain of Calcium/calmodulin-dependent protein kinase type II subunit alpha (Q9UQM7 whole entry): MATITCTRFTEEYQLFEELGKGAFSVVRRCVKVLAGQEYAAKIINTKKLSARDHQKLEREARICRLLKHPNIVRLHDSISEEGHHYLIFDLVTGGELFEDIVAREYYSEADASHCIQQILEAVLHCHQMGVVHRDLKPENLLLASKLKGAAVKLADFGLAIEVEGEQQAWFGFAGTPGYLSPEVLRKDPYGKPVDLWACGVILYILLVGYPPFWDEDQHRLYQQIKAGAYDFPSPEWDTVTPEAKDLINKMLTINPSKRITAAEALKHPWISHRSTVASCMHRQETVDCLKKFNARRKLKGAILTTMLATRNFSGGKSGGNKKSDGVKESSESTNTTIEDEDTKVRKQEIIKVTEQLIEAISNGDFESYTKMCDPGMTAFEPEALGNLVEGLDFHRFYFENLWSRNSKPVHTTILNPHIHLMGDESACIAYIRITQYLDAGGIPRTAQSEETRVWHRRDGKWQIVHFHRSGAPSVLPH

[40] = system: HEK293; test: cells; format: functional, cell-based; conditions: Homo sapiens;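 further: NOD2 overexpressing HEK293T cells carrying an NF-kB luciferase reporter; compound exposure roughly 14 hours overnight then 1 hour with resazurin; potency is for loss of cell viability meaning cytotoxicity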

## CCc1oc2ccccc2c1C(=O)c1cc(Br)c(O)c(Br)c1 [BENZBROMARONE]
[1]
  EC50: 5.71 µM (active)
[2]
  EC50: 5.29 µM (active)
[3]
  IC50: 7.97 µM (not active) and 4.88 µM (not active)
[4]
  EC50: > 150 µM (not active)
[5]
  IC50: 18.8 µM (inactive)
[6]
  IC50: 15 µM (inactive)
[7]
  IC50: > 40 µM (inactive)
[8]
  IC50: > 20 µM (inactive)
[9]
  IC50: > 10 µM (inactive)

## N#Cc1ccc2[nH]c(O)c(-c3ccc(CN4CCOCC4)cn3)c2c1 [AZD-1080]
[10]
  Ki: > 5.01 µM (inactive)
[11]
  Ki: > 3.16 µM (inactive)
[12]
  Ki: > 7.94 µM (inactive)
[13]
  Ki: > 1.26 µM (inactive)
[14]
  Ki: > 5.01 µM (inactive)
[15]
  Ki: > 6.31 µM (inactive)
[16]
  Ki: > 1.58 µM (inactive)
[17]
  Ki: > 1.58 µM (inactive)
[18]
  Ki: > 1.58 µM (inactive)
[19]
  Ki: > 3.16 µM (inactive)
[20]
  Ki: > 2.51 µM (inactive)
[21]
  Ki: > 5.01 µM (inactive)
[22]
  Ki: > 7.94 µM (inactive)
[23]
  Ki: 3.98 µM (active)
[24]
  Ki: > 1.58 µM (inactive)
[25]
  Ki: > 3.98 µM (inactive)
[26]
  Ki: 1 µM (active)
[27]
  Ki: > 3.16 µM (inactive)
[28]
  Ki: > 7.94 µM (inactive)
[29]
  Ki: > 7.94 µM (inactive)
[30]
  Ki: > 3.16 µM (inactive)
[31]
  Ki: > 10 µM (inactive)
[32]
  Ki: > 7.94 µM (inactive)
[33]
  Ki: 2 µM (active)
[34]
  Ki: 1 µM (active)
[35]
  Ki: > 2.51 µM (inactive)
[36]
  Ki: > 7.94 µM (inactive)
[37]
  Ki: > 3.98 µM (inactive)
[38]
  Ki: > 3.16 µM (inactive)
[39]
  Ki: 6.31 µM (active)

## O=C1C=C(N2CCOCC2)c2ccccc2C1=O
[40]
  IC50: > 20 µM (inactive)

— ChEMBL document CHEMBL1201862, “PubChem BioAssay data set” (2004)
